According to ChEMBL document CHEMBL1201862, “PubChem BioAssay data set” (2004):
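Five compound concentrations were applied to cells in 96-well plates for 48 hours; endpoints were derived by simple linear interpolation of the resulting dose-response curve. GI50: concentration for 50% inhibition of growth.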 Active and inactive are the calls of the source. Rule as the data show it: active = GI50 up to about 1.1 µM and inactive = higher.

Key:
Experiment in all cases: NCI anticancer screen, dose series, 48 h
[1] = system: RPMI-8226
[2] = system: HCT-116
[3] = system: KM12
[4] = system: HCT-15
[5] = system: SNB-75
[6] = system: IGROV-1
[7] = system: NCI-H226
[8] = system: MOLT-4
[9] = system: SK-MEL-2
[10] = system: UACC-62
[11] = system: OVCAR-8
[12] = system: CCRF-CEM
[13] = system: SK-MEL-28
[14] = system: COLO 205
[15] = system: NCI-H23
[16] = system: LOX IMVI
[17] = system: DLD-1
[18] = system: Malme-3M
[19] = system: OVCAR-4
[20] = system: DMS-273
[21] = system: SK-MEL-5
[22] = system: SF-268
[23] = system: A549
[24] = system: OVCAR-5
[25] = system: OVCAR-3
[26] = system: K562
[27] = system: HL-60
[28] = system: U-251
[29] = system: TK-10
[30] = system: KM-20L2
[31] = system: M19-MEL
[32] = system: RXF 393
[33] = system: SW-620
[34] = system: ACHN
[35] = system: CAKI-1
[36] = system: HT-29
[37] = system: SN12C
[38] = system: SF-295
[39] = system: A498
[40] = system: 786-0
[41] = system: NCI-H460
[42] = system: UO-31
[43] = system: HOP-62
[44] = system: EKVX
[45] = system: NCI-H522
[46] = system: LXFL 529
[47] = system: SNB-19
[48] = system: HOP-18
[49] = system: UACC-257
[50] = system: M14
[51] = system: HCC 2998
[52] = system: SK-OV-3
[53] = system: RXF 631
[54] = system: DMS-114
[55] = system: SF-539

With `COc1ccc2nc3cc(Cl)ccc3c(NCCC[N+](C)(C)CCCCCCCCCCCCCCCC[N+](C)(C)CCCNc3c4ccc(Cl)cc4nc4ccc(OC)cc34)c2c1` the GI50 [1] was 1.47 µM (inactive), the GI50 [2] was 1.75 µM (inactive) and the GI50 [3] was 1.64 µM (inactive). For the same molecule, the GI50 [4] was 5.85 µM, the GI50 [5] was 2.83 µM (inactive) and the GI50 [6] was 2.7 µM (inactive). For the same molecule, the GI50 [7] was 3.94 µM (inactive), the GI50 [8] was 1.43 µM (inactive) and the GI50 [9] was 1.79 µM (inactive). The GI50 [10] was 2.69 µM (inactive), the GI50 [11] was 3.15 µM (inactive) and the GI50 [12] was 1.66 µM (inactive). The GI50 [13] was 2.08 µM (inactive), the GI50 [14] was 1.83 µM (inactive) and the GI50 [15] was 2 µM (inactive). For the same molecule, the GI50 [16] was 1.96 µM (inactive), the GI50 [17] was 3.11 µM (inactive) and the GI50 [18] was 2.24 µM (inactive). The GI50 [19] was 2.44 µM (inactive), the GI50 [20] was 1.77 µM (inactive) and the GI50 [21] was 2 µM (inactive). For the same molecule, the GI50 [22] was 2.11 µM (inactive), the GI50 [23] was 3.12 µM (inactive) and the GI50 [24] was 2.92 µM (inactive). The GI50 [25] was 4.81 µM (inactive), the GI50 [26] was 1.85 µM (inactive) and the GI50 [27] was 1.69 µM (inactive). The GI50 [28] was 2 µM (inactive), the GI50 [29] was 4.22 µM (inactive) and the GI50 [30] was 3.3 µM (inactive). The GI50 [31] was 1.97 µM (inactive), the GI50 [32] was 2.84 µM (inactive) and the GI50 [33] was 1.96 µM (inactive). The GI50 [34] was 6.22 µM (inactive), the GI50 [35] was 10.6 µM (inactive) and the GI50 [36] was 1.61 µM (inactive). The GI50 [37] was 3.22 µM (inactive), the GI50 [38] was 6.03 µM (inactive) and the GI50 [39] was 6.17 µM (inactive). For the same molecule, the GI50 [40] was 3.63 µM (inactive), the GI50 [41] was 1.68 µM (inactive) and the GI50 [42] was > 10 µM (inactive). For the same molecule, the GI50 [43] was 2.88 µM (inactive), the GI50 [44] was 3.21 µM (inactive) and the GI50 [45] was 2.81 µM (inactive). The GI50 [46] was 1.79 µM (inactive), the GI50 [47] was 2.69 µM (inactive) and the GI50 [48] was 2.42 µM (inactive). The GI50 [49] was 2.43 µM (inactive), the GI50 [50] was 4.7 µM (inactive) and the GI50 [51] was 2.84 µM (inactive). The GI50 [52] was 4.33 µM (inactive), the GI50 [53] was 7.14 µM (inactive) and the GI50 [54] was 1.89 µM (inactive). The GI50 [55] was 2.25 µM (inactive).
